Test results: patent US10954214B2 (Janssen Pharmaceutica NV, priority 2016, dated 2021)

How the values were obtained:
[1] = tested on: IL10 secretion by OCI-LY3 ABC-DLBCL cells; test: Human IL10 Mesoscale assay (OCI-LY3); format: cell-based; conditions: Homo sapiens, 24 h
Procedure, shortened: (§1)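 TMD8 or OCI-LY3 cells (100,000/well) were exposed to compounds in 9 twofold dilutions from 15 μM to 58.6 nM (0.3% DMSO) for 24 h at 37 °C. Supernatant IL6 and IL10 were quantified by MSD electrochemiluminescence immunoassay. DMSO defined maximum signal and BTK inhibitor RN486 (30 nM–131 pM) defined maximum inhibition.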

[2] = tested on: IL6 secretion by OCI-LY3 ABC-DLBCL cells; test: Human IL6 Mesoscale assay (OCI-LY3); format: cell-based; conditions: Homo sapiens, 24 h
Procedure, shortened: as §1

[3] = target: full-length MALT1 protein (Strep-MALT1(1-824)-His) (Homo sapiens (Human), UniProt Q9UDY8); test: MALT1 Biochemical Protease Assay (Ac-LRSR-AMC substrate); conditions: 10 nM FL MALT1, 200 μM Ac-LRSR-AMC, 4 h at RT; read-out: MALT1_Biochemical activity (Ac-LRSR-amc) IC50
Procedure, shortened: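 Full-length MALT1 pre-incubated with compounds (30 μM to 0.5 nM, 11 threefold steps) for 50 min at RT. After Ac-LRSR-AMC was added, the reaction ran 4 h at RT and AMC fluorescence was read. IC50 and Hill slope from curve fitting against no-enzyme and no-compound controls.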

full-length MALT1 protein (Strep-MALT1(1-824)-His), sequence (Q9UDY8 whole entry): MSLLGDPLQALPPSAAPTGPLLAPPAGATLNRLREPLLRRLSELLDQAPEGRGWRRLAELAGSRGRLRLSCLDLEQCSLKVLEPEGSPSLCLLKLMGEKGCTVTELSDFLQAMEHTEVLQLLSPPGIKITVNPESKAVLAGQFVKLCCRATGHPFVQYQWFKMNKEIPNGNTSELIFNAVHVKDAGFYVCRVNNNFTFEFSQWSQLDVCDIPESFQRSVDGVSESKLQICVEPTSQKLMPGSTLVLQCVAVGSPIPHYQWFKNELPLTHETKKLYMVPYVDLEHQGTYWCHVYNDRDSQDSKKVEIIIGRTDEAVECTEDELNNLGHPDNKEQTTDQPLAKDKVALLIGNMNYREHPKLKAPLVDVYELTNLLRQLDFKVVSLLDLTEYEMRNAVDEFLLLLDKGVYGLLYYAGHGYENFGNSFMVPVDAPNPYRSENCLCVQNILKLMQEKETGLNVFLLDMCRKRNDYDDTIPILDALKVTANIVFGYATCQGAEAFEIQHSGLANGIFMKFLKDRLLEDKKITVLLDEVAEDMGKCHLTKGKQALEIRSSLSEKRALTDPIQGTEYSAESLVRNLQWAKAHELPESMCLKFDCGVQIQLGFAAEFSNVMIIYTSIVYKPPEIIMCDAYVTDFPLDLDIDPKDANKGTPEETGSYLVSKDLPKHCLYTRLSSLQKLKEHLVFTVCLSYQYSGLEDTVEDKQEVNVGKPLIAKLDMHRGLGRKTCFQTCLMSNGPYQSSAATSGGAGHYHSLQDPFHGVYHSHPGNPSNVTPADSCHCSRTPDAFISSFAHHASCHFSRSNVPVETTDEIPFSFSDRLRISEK

IC50 [1]	IC50 [2]	IC50 [3]	SMILES
100 nM	129 nM	79 nM	Nc1ncc(-n2ncc(C(=O)Nc3cc(Cl)c(-n4nccn4)cc3F)c2C(F)(F)F)c2ccccc12 [Cpd 327, 1-(1-aminoisoquinolin-4-yl)-N-(5-chloro-2-fluoro-4-(2H-1,2,3-triazol-2-yl)phenyl)-5-(trifluoromethyl)-1H-pyrazole-4-carboxamide]
417 nM	501 nM	141 nM	O=C(Nc1cc(Cl)c(-n2nccn2)cc1F)c1cnn(-c2cccc3nnsc23)c1C(F)(F)F [Cpd 301, 1-(benzo[d][1,2,3]thiadiazol-7-yl)-N-(5-chloro-2-fluoro-4-(2H-1,2,3-triazol-2-yl)phenyl)-5-(trifluoromethyl)-1H-pyrazole-4-carboxamide]
182 nM	209 nM	141 nM	Cc1cc(-n2nccn2)c(C#N)cc1NC(=O)c1cnn(-c2cnc(N)c3ccccc23)c1C(F)(F)F [Cpd 337, 1-(1-aminoisoquinolin-4-yl)-N-(5-cyano-2-methyl-4-(2H-1,2,3-triazol-2-yl)phenyl)-5-(trifluoromethyl)-1H-pyrazole-4-carboxamide]
2240 nM	2190 nM	302 nM	COc1cc(NC(=O)c2cnn(-c3cccc4ncccc34)c2C(F)(F)F)cnc1-n1nccn1 [Cpd 251, N-(5-methoxy-6-(2H-1,2,3-triazol-2-yl)pyridin-3-yl)-1-(quinolin-5-yl)-5-(trifluoromethyl)-1H-pyrazole-4-carboxamide]
389 nM	479 nM	25 nM	Cc1cnn(-c2nc(C)c(NC(=O)c3cnn(-c4cnc(N)c5ccccc45)c3C(F)(F)F)cc2Cl)n1 [Cpd 341, 1-(1-aminoisoquinolin-4-yl)-N-(5-chloro-2-methyl-6-(4-methyl-2H-1,2,3-triazol-2-yl)pyridin-3-yl)-5-(trifluoromethyl)-1H-pyrazole-4-carboxamide]
91 nM	98 nM	28 nM	Cc1cnn(-c2nc(C)c(NC(=O)c3cnn(-c4cccc5c(=O)[nH]ccc45)c3C(F)(F)F)cc2Cl)n1 [Cpd 359, N-(5-chloro-2-methyl-6-(4-methyl-2H-1,2,3-triazol-2-yl)pyridin-3-yl)-1-(1-oxo-1,2-dihydroisoquinolin-5-yl)-5-(trifluoromethyl)-1H-pyrazole-4-carboxamide]
52 nM	52 nM	1230 nM	O=C(Nc1cnc(-n2nccn2)c(Cl)c1)c1cnn(-c2cccc3[nH]c(=O)ccc23)c1C(F)(F)F [Cpd 344, N-(5-chloro-6-(2H-1,2,3-triazol-2-yl)pyridin-3-yl)-1-(2-oxo-1,2-dihydroquinolin-5-yl)-5-(trifluoromethyl)-1H-pyrazole-4-carboxamide]
93 nM	186 nM	170 nM	C#Cc1cc(NC(=O)c2cnn(-c3cccc4c(=O)[nH]ccc34)c2C(F)(F)F)c(C)nc1-n1nccn1 [Cpd 190, N-(5-ethynyl-2-methyl-6-(2H-1,2,3-triazol-2-yl)pyridin-3-yl)-1-(1-oxo-1,2-dihydroisoquinolin-5-yl)-5-(trifluoromethyl)-1H-pyrazole-4-carboxamide]

Further lines, the compound ahead of its results:

SMILES	IC50 [1]	IC50 [2]	IC50 [3]
Cc1nc(-c2ccn(C)n2)c(Cl)cc1NC(=O)c1cnn(-c2cnc(N)c3ccccc23)c1C(F)(F)F [Cpd 333, 1-(1-aminoisoquinolin-4-yl)-N-(5-chloro-2-methyl-6-(1-methyl-1H-pyrazol-3-yl)pyridin-3-yl)-5-(trifluoromethyl)-1H-pyrazole-4-carboxamide]	123 nM	155 nM	245 nM
N#Cc1cc(NC(=O)c2cnn(-c3cnc(N)c4ccccc34)c2C(F)(F)F)ccn1 [Cpd 340, 1-(1-aminoisoquinolin-4-yl)-N-(2-cyanopyridin-4-yl)-5-(trifluoromethyl)-1H-pyrazole-4-carboxamide]	229 nM	295 nM	209 nM
O=C(Nc1cnc(-n2nccn2)c(Cl)c1)c1cnn(-c2cccc3nc([C@@H]4CCCO4)ccc23)c1C(F)(F)F (single isomer, unassigned) [Cpd 441, (*S)—N-(5-chloro-6-(2H-1,2,3-triazol-2-yl)pyridin-3-yl)-1-(2-(tetrahydrofuran-2-yl)quinolin-5-yl)-5-(trifluoromethyl)-1H-pyrazole-4-carboxamide]	891 nM	1120 nM	977 nM
CN(C)Cc1cnnn1-c1ncc(NC(=O)c2cnn(-c3cccc4ncccc34)c2C(F)(F)F)cc1Cl [Cpd 270, N-(5-chloro-6-(5-((dimethylamino)methyl)-1H-1,2,3-triazol-1-yl)pyridin-3-yl)-1-(quinolin-5-yl)-5-(trifluoromethyl)-1H-pyrazole-4-carboxamide]	98 nM	170 nM	145 nM
N#Cc1cc(NC(=O)c2cnn(-c3cccc4ncnn34)c2C(F)(F)F)cnc1-n1nccn1 [Cpd 274, 1-([1,2,4]triazolo[1,5-a]pyridin-5-yl)-N-(5-cyano-6-(2H-1,2,3-triazol-2-yl)pyridin-3-yl)-5-(trifluoromethyl)-1H-pyrazole-4-carboxamide]	3160 nM	2750 nM	141 nM
N#Cc1cc(NC(=O)c2cnn(-c3ncnc4occc34)c2C(F)(F)F)cnc1-n1nccn1 [Cpd 292, N-(5-cyano-6-(2H-1,2,3-triazol-2-yl)pyridin-3-yl)-1-(furo[2,3-d]pyrimidin-4-yl)-5-(trifluoromethyl)-1H-pyrazole-4-carboxamide]	115 nM	151 nM	79 nM
Cc1cc2nccc(-n3ncc(C(=O)Nc4cnc(-n5nccn5)c(C#N)c4)c3C(F)(F)F)c2s1 [Cpd 232, N-(5-cyano-6-(2H-1,2,3-triazol-2-yl)pyridin-3-yl)-1-(2-methylthieno[3,2-b]pyridin-7-yl)-5-(trifluoromethyl)-1H-pyrazole-4-carboxamide]	182 nM	145 nM	891 nM
O=C(Nc1cnc(-n2nccn2)c(Cl)c1)c1cnn(-c2nsc3ccccc23)c1C(F)(F)F [Cpd 290, 1-(benzo[d]isothiazol-3-yl)-N-(5-chloro-6-(2H-1,2,3-triazol-2-yl)pyridin-3-yl)-5-(trifluoromethyl)-1H-pyrazole-4-carboxamide]	110 nM	186 nM	81 nM
Cn1ccc(-c2ncc(NC(=O)c3cnn(-c4cccc5nnsc45)c3C(F)(F)F)cc2Cl)n1 [Cpd 293, 1-(benzo[d][1,2,3]thiadiazol-7-yl)-N-(5-chloro-6-(1-methyl-1H-pyrazol-3-yl)pyridin-3-yl)-5-(trifluoromethyl)-1H-pyrazole-4-carboxamide]	251 nM	447 nM	76 nM
O=C(Nc1cnc(-n2nccn2)c(Cl)c1)c1cnn(-c2ccc3nccn3n2)c1C(F)(F)F [Cpd 242, N-(5-chloro-6-(2H-1,2,3-triazol-2-yl)pyridin-3-yl)-1-(imidazo[1,2-b]pyridazin-6-yl)-5-(trifluoromethyl)-1H-pyrazole-4-carboxamide]	54 nM	65 nM	437 nM
O=C(Nc1cnc(-n2nccn2)c(Cl)c1)c1cnn(-c2c[n+]([O-])cc3sccc23)c1C(F)(F)F [Cpd 409, 4-(4-((5-chloro-6-(2H-1,2,3-triazol-2-yl)pyridin-3-yl)carbamoyl)-5-(trifluoromethyl)-1H-pyrazol-1-yl)thieno[2,3-c]pyridine 6-oxide]	95 nM	98 nM	2290 nM
O=C(Nc1ccc(-c2n[nH]c(=O)[nH]2)c(Cl)c1)c1cnn(-c2cccc3ncccc23)c1C(F)(F)F [Cpd 166, N-(3-chloro-4-(5-oxo-4,5-dihydro-1H-1,2,4-triazol-3-yl)phenyl)-1-(quinolin-5-yl)-5-(trifluoromethyl)-1H-pyrazole-4-carboxamide]	479 nM	457 nM	229 nM
O=C(Nc1ccnc(C(F)(F)F)c1)c1cnn(-c2cncc3c(F)cccc23)c1C(F)(F)F [Cpd 320, 1-(8-fluoroisoquinolin-4-yl)-5-(trifluoromethyl)-N-(2-(trifluoromethyl)pyridin-4-yl)-1H-pyrazole-4-carboxamide]	93 nM	182 nM	69 nM
O=C(Nc1ccnc(C(F)(F)F)c1)c1cnn(-c2cnc(N3CC(O)C3)c3sccc23)c1C(F)(F)F [Cpd 210, 1-(7-(3-hydroxyazetidin-1-yl)thieno[2,3-c]pyridin-4-yl)-5-(trifluoromethyl)-N-(2-(trifluoromethyl)pyridin-4-yl)-1H-pyrazole-4-carboxamide]	380 nM	417 nM	72 nM
O=C(Nc1cnc(-n2nccn2)c(Cl)c1)c1cnn(-c2noc3ccccc23)c1C(F)(F)F [Cpd 284, 1-(benzo[d]isoxazol-3-yl)-N-(5-chloro-6-(2H-1,2,3-triazol-2-yl)pyridin-3-yl)-5-(trifluoromethyl)-1H-pyrazole-4-carboxamide]	724 nM	589 nM	120 nM
O=C(Nc1cnc(-n2nccn2)c(Cl)c1)c1cnn(-c2cccc3nc(C4CCCO4)ccc23)c1C(F)(F)F (stereo not drawn) [Cpd 372, N-(5-chloro-6-(2H-1,2,3-triazol-2-yl)pyridin-3-yl)-1-(2-(tetrahydrofuran-2-yl)quinolin-5-yl)-5-(trifluoromethyl)-1H-pyrazole-4-carboxamide]	12 nM	12 nM	2000 nM
